Experiment [1] concerns HBE cells. Kind of experiment: Airway surface liquid (ASL) depth measurement by confocal microscopy in HBE monolayers. The experiment is classed as cell-based, human. Conditions: ivacaftor 10 μM basolateral, 24 h, confocal (FIGS. 2A, 2B). How it is done:
White scale bars designate 10 μm.
Dotted line indicates ASL depth of a panel of CF HBE cells using the exact same method.
The apical surfaces of HBE cells were washed three times and then test compounds added to the basolateral compartment 24 h prior to labeling. Cells were stained with CMFDA (100 μM) in the cell culture medium for 1 hr. Texas red dye (25 μl at 2 mg/ml in Fc70) was added apically and cells allowed to equilibrate 2 h at 37° C. Transwell membranes were placed in sterile glass bottom dish coated with MEM, and imaged with a Carl Zeiss (Peabody, Mass.) confocal microscope using 20× (numerical aperture 0.88, working distance 0.55 mm) air objective lens. Cells were visualized with DIC optics to evaluate cell morphology before initiating fluorescence microscopy. Subsequently, Zscan confocal fluorescent microscopy images were acquired from the top of the ASL through the top of the cell surface. XZ scans were analyzed using Zen2008 software at four ROI per well each located 1 mm from the filter periphery and at each quadrant; 5 estimates of ASL depth were taken equally dispersed across each ROI (7, 9).

In experiment [2] the test system is HBE cells. Nature of the experiment: Mucus transport studies (fluorescent beads) in HBE cells. The experiment is classed as cell-based, human. Conditions: ivacaftor 10 μM basolateral, co-stimulated with VIP 30 nM, vs control (FIG. 2C). How it is done: HBE cells were washed with sterile PBS twice 1-2 days prior to addition of PEG beads. Fifty (50) μl of Diamine polyethylene glycol (PEG) coated fluorescent beads (1 μm, Molecular Probes, Eugene, Oreg., 1:500 dilution in PBS) were added to the apical surface by using a microsprayer aerosolizer (Penn-Century Inc Model IA-1B, Wyndmoor, Pa.). Following 24 h incubation, baseline images were obtained and then test compounds added to the basolateral compartment. Mucociliary transport (MCT) images were captured by time-lapse fluorescence imaging at four regions of interest per well located 1 mm from the periphery of the well and at each quadrant using an inverted epifluorescence microscope (Nikon Diaphot, Melvin, N.Y.; 488 nm excitation/519 nm emission). Linear transport rates were computed using Metamoph 7.0 by analyzing 10-15 particles per region (7).

The subject of a further experiment is porcine trachea CFTR−/−. Nature of the experiment: μOCT imaging of airway epithelial function in porcine trachea, CFTR-/- animals. Conditions: sequential ivacaftor 10 μM, forskolin 100 nM, acetylcholine 100 μM in bath, 37° C. (FIG. 7G). The source says:
FIGS. 7A-7H show the effects of CFTR activators on airway epithelial function in intact porcine trachea by μOCT. FIGS. 7A-7B show representative μOCT images for a CFTR−/− (FIG. 7A) and CFTR+/+ (FIG. 7B) animal. FIGS. 7C-7F, respectively, show ASL depth (FIG. 7C), PCL depth (FIG. 7D), CBF (FIG. 7E) and MCT (FIG. 7F) measurements derived from μOCT images from CFTR−/− and CFTR+/+ animals. FIGS. 7G and 7H show the response of epithelial functional parameters, namely ASL depth and MCT in CFTR−/− (FIG. 7G) and CFTR+/+(FIG. 7H) animals in response to sequential pharmacologic intervention by ivacaftor (10 μM), forskolin (100 nM) and acetylcholine (100 μM).
To further investigate the role of CFTR activators in modulating airway epithelial cell function, CFTR activators were studied in combination with porcine trachea. In this example, porcine trachea from animals having a mutated CFTR (CFTR (−/−) and from animals having a WT-CFTR (CFTR+/+) were evaluated for ASL depth, PCL depth, CBF and MCT. The results are shown in FIGS. 7A-7H.
FIGS. 7G and 7H show the response of epithelial functional parameters, namely ASL depth, CBF and MCT in CFTR−/− and CFTR+/+ animals in response to sequential pharmacologic intervention by ivacaftor (10 μM), forskolin (100 nM) and acetylcholine (100 μM); in this experiment, acetylcholine served as a positive control to induce glandular extrusion in CF tissue). In these experiments, agonists were added to the bath solution and all experiments were conducted under physiological conditions (37° C. and 100% humidity). […] In contrast to FIG. 7G, ASL depth, CBF and MCT were all increased in response to ivacaftor treatment in CFTR+/+ animals, consistent with the results described above for human tissue.
Normal piglet tracheas were obtained from Exemplar Genetics (Sioux Center, Iowa). Tissue were dissected from one-day-old piglets and shipped on wet ice in DMEM. A modified protocol based on airway tissue handling and preparation methods developed by Ballard et al. (Am J Physiol Lung Cell Mol Physiol 298: L270-276, 2010) was employed. Tracheas were immersed in 80 mL Ringer bicarbonate solution (KRB) baths at room temperature and slowly warmed to 37° C. After four hours of pretreatment, the tracheas were removed from the KRB. Accessible mucus and liquid were aspirated from the airway lumens and the tracheal ends were cannulated so that the serosal surface was bathed in KRB [29] without contacting the mucosal surface, as previously described (Ballard et al., Am J Physiol Lung Cell Mol Physiol 298: L270-276, 2010; Martens, et al., Am J Physiol Lung Cell Mol Physiol 301: L236-246, 2011). Tracheas were allowed to equilibrate in KRB bubbled with 95% 02 and 5% CO2 at 37° C. and the luminal side exposed to conditioned air at 100% humidity for 2 hours prior to mOCT imaging (Sleigh et al., Comp Biochem Physiol A Comp Physiol 94: 359-364, 1989).
The μOCT system is a spectral-domain OCT implementation with several improvements to standard OCT that yield high resolution in both lateral and axial directions. The general layout and axial resolution characterization have been described (Liu et al., PLOSOne, 8(1), E54473-2013). A super-continuum source (Fianium SC450) provides the high-bandwidth, short coherence length light necessary for high axial resolution ([…]). A typical OCT system includes an interferometer with the reference and sample arms intersecting at a beamsplitter. The beamsplitter is replaced in μOCT with a 45 degree rod mirror, which apodizes the sample beam by introducing a circular obscuration in the center to achieve a balance of good lateral resolution (2 μm) and long depth of focus (0.2 mm). Custom software is employed to control the galvanometer scanning motors while acquiring spectral data from the line camera. […]

For another experiment, the target named is G551D-CFTR (Homo sapiens, UniProt P13569, G551D). The settings on record: in vitro and in CF subjects harboring the G551D-CFTR defect; reported; cited from earlier work.
Sequence of G551D-CFTR (P13569 whole entry G551D): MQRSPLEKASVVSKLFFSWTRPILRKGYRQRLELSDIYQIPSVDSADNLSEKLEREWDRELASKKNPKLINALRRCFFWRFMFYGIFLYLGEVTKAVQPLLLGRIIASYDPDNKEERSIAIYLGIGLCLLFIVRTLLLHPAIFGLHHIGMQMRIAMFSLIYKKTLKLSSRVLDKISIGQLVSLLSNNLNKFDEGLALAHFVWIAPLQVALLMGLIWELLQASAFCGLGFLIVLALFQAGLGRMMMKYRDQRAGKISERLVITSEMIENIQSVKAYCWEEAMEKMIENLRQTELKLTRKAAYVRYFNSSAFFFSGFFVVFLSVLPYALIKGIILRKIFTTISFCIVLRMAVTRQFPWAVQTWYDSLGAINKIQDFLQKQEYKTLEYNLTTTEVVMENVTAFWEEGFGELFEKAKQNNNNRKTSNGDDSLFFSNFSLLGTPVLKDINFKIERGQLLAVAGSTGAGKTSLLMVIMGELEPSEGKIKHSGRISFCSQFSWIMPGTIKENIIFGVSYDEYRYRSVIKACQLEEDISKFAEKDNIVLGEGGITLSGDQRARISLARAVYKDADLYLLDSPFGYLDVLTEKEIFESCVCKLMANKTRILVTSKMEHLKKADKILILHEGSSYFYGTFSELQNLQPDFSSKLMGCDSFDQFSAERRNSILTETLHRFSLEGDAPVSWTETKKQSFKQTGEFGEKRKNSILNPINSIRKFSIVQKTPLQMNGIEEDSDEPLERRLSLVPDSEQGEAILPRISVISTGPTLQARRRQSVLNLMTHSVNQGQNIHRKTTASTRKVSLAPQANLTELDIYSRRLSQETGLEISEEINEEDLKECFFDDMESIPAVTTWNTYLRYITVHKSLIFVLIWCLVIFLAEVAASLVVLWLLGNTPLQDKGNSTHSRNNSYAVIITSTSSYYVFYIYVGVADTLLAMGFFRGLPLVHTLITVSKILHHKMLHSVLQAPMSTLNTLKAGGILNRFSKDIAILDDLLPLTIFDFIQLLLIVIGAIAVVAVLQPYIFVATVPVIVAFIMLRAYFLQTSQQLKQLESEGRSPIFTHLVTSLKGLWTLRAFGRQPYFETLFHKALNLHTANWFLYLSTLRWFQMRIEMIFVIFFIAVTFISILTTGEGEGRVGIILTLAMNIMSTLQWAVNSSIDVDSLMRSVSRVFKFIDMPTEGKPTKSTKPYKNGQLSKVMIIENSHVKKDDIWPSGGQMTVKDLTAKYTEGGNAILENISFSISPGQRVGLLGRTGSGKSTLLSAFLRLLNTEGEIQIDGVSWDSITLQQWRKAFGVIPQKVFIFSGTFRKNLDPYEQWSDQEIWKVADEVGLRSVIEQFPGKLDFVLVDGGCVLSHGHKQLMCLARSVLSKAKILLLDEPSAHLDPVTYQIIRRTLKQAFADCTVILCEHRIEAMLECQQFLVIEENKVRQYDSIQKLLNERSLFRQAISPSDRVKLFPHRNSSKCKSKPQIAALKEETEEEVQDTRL

On to `CC(C)(C)c1cc(C(C)(C)C)c(NC(=O)c2c[nH]c3ccccc3c2=O)cc1O` [ivacaftor], for which the ASL depth entry in the experiment with HBE cells [1] is “enhanced”. For the same compound, the “mucus transport (MCT)” value in the experiment on HBE cells [2] was “markedly increased above baseline”. For the same compound, in the experiment on porcine trachea CFTR−/−, the ASL depth response entry is “no response”, the CBF response entry was “no response” and the MCT response entry is listed as “no response”. Further, the “cAMP mediated ion transport activity of CFTR encoding the gating mutation G551D-CFTR” value at G551D-CFTR is listed as “significantly augment”.

(Values after patent US10300052B2, “Methods for increasing CFTR activity” (THE UAB RESEARCH FOUNDATION, priority 2012, dated 2019).)
